# Columns and labels:
# barnyardgrass [1] = test: Test A pre-/postemergence greenhouse test; assay type: in vivo, Echinochloa crus-galli; settings: for Barnyardgrass plant response rating: 0 to 100 scale; for Plant response rating, Barnyardgrass: 0 to 100 scale where 0 is no effect and 100 is complete control
# Method in brief: (§1)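 Pre: directed soil spray on seeded loam/sand. Post: foliar spray, plants 2–10 cm, 1–2 leaf stage, applied concurrently. Vehicle: non-phytotoxic solvent + surfactant. Greenhouse ~10 d; visual injury rating vs untreated controls.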
# crabgrass = test: Test A pre-/postemergence greenhouse test; assay type: in vivo, Digitaria sanguinalis; settings: for Crabgrass, Large plant response rating: 0 to 100 scale; for Plant response rating, Crabgrass, Large: 0 to 100 scale where 0 is no effect and 100 is complete control
# Method in brief: as §1
# giant foxtail = test: Test A pre-/postemergence greenhouse test; assay type: in vivo, Setaria faberi; settings: for Foxtail, Giant plant response rating: 0 to 100 scale; for Plant response rating, Foxtail, Giant: 0 to 100 scale where 0 is no effect and 100 is complete control
# Method in brief: as §1
# morningglory = test: Test A pre-/postemergence greenhouse test; assay type: in vivo, Ipomoea spp.; settings: for Morningglory plant response rating: 0 to 100 scale; for Plant response rating, Morningglory: 0 to 100 scale where 0 is no effect and 100 is complete control
# Method in brief: as §1
# redroot pigweed = test: Test A pre-/postemergence greenhouse test; assay type: in vivo, Amaranthus retroflexus; settings: for Pigweed plant response rating: 0 to 100 scale
# Method in brief: as §1
# velvetleaf = test: Test A pre-/postemergence greenhouse test; assay type: in vivo, Abutilon theophrasti; settings: for Velvetleaf plant response rating: 0 to 100 scale; for Plant response rating, Velvetleaf: 0 to 100 scale where 0 is no effect and 100 is complete control
# Method in brief: as §1
# wheat = test: Test A pre-/postemergence greenhouse test; assay type: in vivo, Triticum aestivum; settings: for Wheat plant response rating: 0 to 100 scale; for Plant response rating, Wheat: 0 to 100 scale where 0 is no effect and 100 is complete control
# Method in brief: as §1
# corn = test: Test A pre-/postemergence greenhouse test; assay type: in vivo, Zea mays; settings: for Corn plant response rating: 0 to 100 scale; for Plant response rating, Corn: 0 to 100 scale where 0 is no effect and 100 is complete control
# Method in brief: as §1
# rice = test: Test C flooded paddy test; assay type: in vivo, Oryza sativa; settings: Flood
# Method in brief: (§2)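 Pots were flooded to 3 cm above the soil surface at treatment, compound applied directly to the paddy water, and that depth held throughout. Plants were kept in a greenhouse for 13 to 15 days, then visually rated against untreated controls.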
# umbrella sedge = test: Test C flooded paddy test; assay type: in vivo, Cyperus difformis; settings: Flood
# Method in brief: as §2
# duck salad = test: Test C flooded paddy test; assay type: in vivo, Heteranthera limosa; settings: Flood
# Method in brief: as §2
# barnyardgrass [2] = test: Test C flooded paddy test; assay type: in vivo, Echinochloa crus-galli; settings: Flood
# Method in brief: as §2
# [3] = Postemergence, 125 g ai/ha, 0 is no effect, 100 is complete control
# [4] = Postemergence, 500 g ai/ha, 0 is no effect, 100 is complete control
# [5] = Preemergence, 125 g ai/ha, 0 no effect, 100 complete control
# [6] = 31 g ai/ha, scale 0 to 100 (0 no effect, 100 complete control)
# [7] = 62 g ai/ha, scale 0 to 100, 0 no effect, 100 complete control, 13 to 15 days
# [8] = 125 g ai/ha, scale 0 to 100, 0 no effect, 100 complete control, 13 to 15 days
# [9] = 250 g ai/ha, scale 0 to 100, 0 no effect, 100 complete control, 13 to 15 days
# [10] = 250 g ai/ha, scale 0 to 100 (0 no effect, 100 complete control)
compound,measurement,setting,value
Cn1nc(C(F)(F)F)c(CS(=O)(=O)c2cc(Br)cc[n+]2[O-])c1Cl [Compound 32],Barnyardgrass plant response rating,barnyardgrass [1]; [3],0
same,Barnyardgrass plant response rating,barnyardgrass [1]; [4],30
same,Barnyardgrass plant response rating,barnyardgrass [1]; [5],0
same,"Plant response rating, Barnyardgrass","barnyardgrass [1]; Preemergence, 500 g ai/ha",60
same,"Crabgrass, Large plant response rating",crabgrass; [3],0
same,"Crabgrass, Large plant response rating",crabgrass; [4],0
same,"Crabgrass, Large plant response rating",crabgrass; [5],0
same,"Plant response rating, Crabgrass, Large","crabgrass; Preemergence, 500 g ai/ha",0
same,"Foxtail, Giant plant response rating",giant foxtail; [3],0
same,"Foxtail, Giant plant response rating",giant foxtail; [4],0
same,"Foxtail, Giant plant response rating",giant foxtail; [5],0
same,"Plant response rating, Foxtail, Giant","giant foxtail; Preemergence, 500 g ai/ha",70
same,Morningglory plant response rating,morningglory; [3],0
same,Morningglory plant response rating,morningglory; [4],10
same,Morningglory plant response rating,morningglory; [5],0
same,"Plant response rating, Morningglory","morningglory; Preemergence, 500 g ai/ha",0
same,Pigweed plant response rating,redroot pigweed; [3],0
same,Pigweed plant response rating,redroot pigweed; [4],0
same,Pigweed plant response rating,redroot pigweed; [5],0
same,"Plant response rating, Pigweed","redroot pigweed; Preemergence, 500 g ai/ha, 0 to 100 scale where 0 is no effect and 100 is complete control",100
same,Velvetleaf plant response rating,velvetleaf; [3],0
same,Velvetleaf plant response rating,velvetleaf; [4],0
same,Velvetleaf plant response rating,velvetleaf; [5],0
same,"Plant response rating, Velvetleaf","velvetleaf; Preemergence, 500 g ai/ha",0
same,Wheat plant response rating,wheat; [3],0
same,Wheat plant response rating,wheat; [4],0
same,Wheat plant response rating,wheat; [5],0
same,"Plant response rating, Wheat","wheat; Preemergence, 500 g ai/ha",30
same,Corn plant response rating,corn; [3],0
same,Corn plant response rating,corn; [4],0
same,Corn plant response rating,corn; [5],0
same,"Plant response rating, Corn","corn; Preemergence, 500 g ai/ha",20
same,"Plant response rating, Rice",rice; [6],0
same,"Plant response rating, Rice",rice; [7],0
same,"Plant response rating, Rice",rice; [8],0
same,"Plant response rating, Rice",rice; [9],0
same,"Plant response rating, Sedge, Umbrella",umbrella sedge; [6],0
same,"Plant response rating, Sedge, Umbrella",umbrella sedge; [7],0
same,"Plant response rating, Sedge, Umbrella",umbrella sedge; [8],0
same,"Plant response rating, Sedge, Umbrella",umbrella sedge; [9],50
same,"Plant response rating, Ducksalad",duck salad; [6],0
same,"Plant response rating, Ducksalad",duck salad; [7],0
same,"Plant response rating, Ducksalad",duck salad; [8],0
same,"Plant response rating, Ducksalad",duck salad; [9],50
same,"Plant response rating, Barnyardgrass",barnyardgrass [2]; [6],0
same,"Plant response rating, Barnyardgrass",barnyardgrass [2]; [7],0
same,"Plant response rating, Barnyardgrass",barnyardgrass [2]; [8],0
same,"Plant response rating, Barnyardgrass",barnyardgrass [2]; [9],0
Cn1nc(C(F)(F)F)c(C(Cl)S(=O)(=O)c2ccc(Cl)c[n+]2[O-])c1Cl (racemic) [Compound 21],Barnyardgrass plant response rating,barnyardgrass [1]; [3],0
same,Barnyardgrass plant response rating,barnyardgrass [1]; [4],30
same,Barnyardgrass plant response rating,barnyardgrass [1]; [5],60
same,"Plant response rating, Barnyardgrass","barnyardgrass [1]; Preemergence, 500 g ai/ha",90
same,"Crabgrass, Large plant response rating",crabgrass; [3],20
same,"Crabgrass, Large plant response rating",crabgrass; [4],40
same,"Crabgrass, Large plant response rating",crabgrass; [5],60
same,"Plant response rating, Crabgrass, Large","crabgrass; Preemergence, 500 g ai/ha",80
same,"Foxtail, Giant plant response rating",giant foxtail; [3],0
same,"Foxtail, Giant plant response rating",giant foxtail; [4],40
same,"Foxtail, Giant plant response rating",giant foxtail; [5],80
same,"Plant response rating, Foxtail, Giant","giant foxtail; Preemergence, 500 g ai/ha",90
same,Morningglory plant response rating,morningglory; [3],0
same,Morningglory plant response rating,morningglory; [4],0
same,"Plant response rating, Morningglory","morningglory; Preemergence, 500 g ai/ha",0
same,Pigweed plant response rating,redroot pigweed; [3],0
same,Pigweed plant response rating,redroot pigweed; [4],0
same,Pigweed plant response rating,redroot pigweed; [5],40
same,Velvetleaf plant response rating,velvetleaf; [3],0
same,Velvetleaf plant response rating,velvetleaf; [4],0
same,Velvetleaf plant response rating,velvetleaf; [5],0
same,"Plant response rating, Velvetleaf","velvetleaf; Preemergence, 500 g ai/ha",0
same,Wheat plant response rating,wheat; [3],0
same,Wheat plant response rating,wheat; [4],0
same,Wheat plant response rating,wheat; [5],0
same,"Plant response rating, Wheat","wheat; Preemergence, 500 g ai/ha",0
same,Corn plant response rating,corn; [3],0
same,Corn plant response rating,corn; [4],0
same,Corn plant response rating,corn; [5],0
same,"Plant response rating, Corn","corn; Preemergence, 500 g ai/ha",0
same,"Plant response rating, Rice",rice; [6],0
same,"Plant response rating, Rice",rice; [7],0
same,"Plant response rating, Rice",rice; [8],0
same,"Plant response rating, Rice",rice; [10],0
same,"Plant response rating, Sedge, Umbrella",umbrella sedge; [6],0
same,"Plant response rating, Sedge, Umbrella",umbrella sedge; [7],0
same,"Plant response rating, Sedge, Umbrella",umbrella sedge; [8],40
same,"Plant response rating, Sedge, Umbrella",umbrella sedge; [9],90
same,"Plant response rating, Ducksalad",duck salad; [6],0
same,"Plant response rating, Ducksalad",duck salad; [7],0
same,"Plant response rating, Ducksalad",duck salad; [8],0
same,"Plant response rating, Ducksalad",duck salad; [10],90
same,"Plant response rating, Barnyardgrass",barnyardgrass [2]; [6],0
same,"Plant response rating, Barnyardgrass",barnyardgrass [2]; [7],0
same,"Plant response rating, Barnyardgrass",barnyardgrass [2]; [8],0
same,"Plant response rating, Barnyardgrass",barnyardgrass [2]; [10],20

# Reference: US20100298141A1, “SUBSTITUTED PYRIDINE N-OXIDE HERBICIDES” (E. I. DU PONT DE NEMOURS AND COMPANY, priority 2007, published 2010)
